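Grown in 96-well plates, cells were treated for 48 hours with each compound at five concentrations. Insufficient inhibition: endpoint recorded as highest concentration tested. The concentration for 50% growth inhibition is given as GI50. At the TGI there is no net growth.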

For the first assay, the system named is SK-OV-3 ovarian. As to the kind of experiment: NCI-60 cell line screen, 48 h.
`N=Nc1c(OC(=O)Nc2cccc(Cl)c2)[nH]c2ccccc12` yielded a TGI of 21.2 µM.

`CC1(C)C2CCC(=O)C1CC2` (stereo not given): the TGI is > 100 µM.

Regarding `Fc1cc2[nH]ncc2c2c3c(c(-c4cn[nH]c4)nc12)CCCC3`, the GI50 is 0.287 µM and the TGI came out at 1.24 µM.

With `CCN1CCN(c2nc(C)cc(N(CCNc3ccnc4cc(Cl)ccc34)Cc3ccc4c(c3)OCO4)n2)CC1`, the GI50 is 2.99 µM and the TGI is 8.73 µM.

With `CCN(CC)c1ccc(-c2cc(-c3cc(OC)c(OC)c(OC)c3)nc(N3CCOCC3)c2C#N)cc1`, the GI50 is 3.22 µM and the TGI is > 100 µM.

`C=C(Br)C(C)(Br)CCC(Br)C(C)(C)Cl` (stereo not given): the TGI stood at 60.4 µM.

Take `O=C(CCc1nnc2sc(-c3ccc(Cl)cc3Cl)nn12)c1nc2ncccc2[nH]1`: the GI50 was 21.5 µM and the TGI came to 58 µM.

In the case of `COc1ccc(-c2nnc(COc3ccc(C(=O)/C=C/c4ccco4)cc3)o2)cc1`, the GI50 was 12.2 µM and the TGI stood at 24.6 µM.

On to `OCc1ccc(-c2ccc(-c3ccc(CO)s3)o2)s1`, for which the TGI was found to be 39.2 µM.

The test system of the next assay is SN12C renal. As to the kind of experiment: NCI-60 cell line screen, 48 h.
As for `CN1CCN(CCCn2c(=O)c3sc4ncccc4c3n3nnc(-c4ccccc4)c23)CC1`, the GI50 is 7.2 µM and the TGI is 14.2 µM.

Regarding `NC1(C(=O)OCc2ccccc2)CCCC1`, the TGI stood at 54 µM.

As for `O=C(/C=C/c1ccc(Cl)cc1)c1ccc(Nc2ccnc3cc(Cl)ccc23)cc1`, the GI50 was > 100 µM and the TGI was > 100 µM.

In the case of `CCCCCCCC(=O)SCC/C=C/[C@@H]1CC(=O)NCc2cc(ccn2)C2=N[C@@](C)(CS2)C(=O)N[C@@H](C(C)C)C(=O)O1`, the GI50 was 0.0641 µM and the TGI is > 33.3 µM.

`CSc1nc(NC2OCC(OC(C)=O)C(OC(C)=O)C2OC(C)=O)c(N=CC=Nc2c(NC3OCC(OC(C)=O)C(OC(C)=O)C3OC(C)=O)nc(SC)[nH]c2=O)c(=O)[nH]1` (stereo not given): the TGI is > 100 µM.

On to `N#CC(C#N)=CNC(N)=S`, for which the TGI is > 100 µM.

With `O=C1OC(O)[C@@H]2[C@H]1[C@H]1CC[C@@H]2O1` (stereo not given in full), the GI50 is > 92.3 µM and the TGI is > 100 µM.

`O=C1c2cc3c(cc2-c2c1c1ccc(F)cc1c(=O)n2CCCNCCO)OCO3`: the GI50 was 0.108 µM and the TGI is 0.861 µM.

Molecule `COC(=O)C1=C(C)NC(C)=C(C(=O)OCCCN2CCC(c3ccccc3)(c3ccccc3)CC2)C1c1cccc([N+](=O)[O-])c1` (stereo not given) had a TGI of 2.99 µM.

In turn, `N=Nc1c(OC(=O)Nc2cccc(Cl)c2)[nH]c2ccccc12` gave a TGI of 14.8 µM.

Consider `CC1(C)C2CCC(=O)C1CC2` (stereo not given), for which the TGI was > 100 µM.

With `Fc1cc2[nH]ncc2c2c3c(c(-c4cn[nH]c4)nc12)CCCC3`, the GI50 is 1.06 µM and the TGI was found to be 7.04 µM.

`CCN1CCN(c2nc(C)cc(N(CCNc3ccnc4cc(Cl)ccc34)Cc3ccc4c(c3)OCO4)n2)CC1`: the GI50 is 2.58 µM and the TGI stood at 8.27 µM.

As to `CCN(CC)c1ccc(-c2cc(-c3cc(OC)c(OC)c(OC)c3)nc(N3CCOCC3)c2C#N)cc1`, the GI50 was 0.805 µM and the TGI is > 100 µM.

`C=C(Br)C(C)(Br)CCC(Br)C(C)(C)Cl` (stereo not given): the TGI was found to be 39.5 µM.

Regarding `O=C(CCc1nnc2sc(-c3ccc(Cl)cc3Cl)nn12)c1nc2ncccc2[nH]1`, the GI50 was 1.99 µM and the TGI stood at 4.92 µM.

As to `COc1ccc(-c2nnc(COc3ccc(C(=O)/C=C/c4ccco4)cc3)o2)cc1`, the GI50 was 3.17 µM and the TGI worked out at 11.5 µM.

In turn, `OCc1ccc(-c2ccc(-c3ccc(CO)s3)o2)s1` came in with a TGI of 81 µM.

The next assay has as its system SW-620 colon. As to the kind of experiment: NCI-60 cell line screen, 48 h.
Regarding `CN1CCN(CCCn2c(=O)c3sc4ncccc4c3n3nnc(-c4ccccc4)c23)CC1`, the GI50 is 5.34 µM and the TGI came out at 11.5 µM.

With `NC1(C(=O)OCc2ccccc2)CCCC1`, the TGI was > 100 µM.

Consider `O=C(/C=C/c1ccc(Cl)cc1)c1ccc(Nc2ccnc3cc(Cl)ccc23)cc1`, for which the GI50 is 6.05 µM and the TGI is > 67.5 µM.

On to `CCCCCCCC(=O)SCC/C=C/[C@@H]1CC(=O)NCc2cc(ccn2)C2=N[C@@](C)(CS2)C(=O)N[C@@H](C(C)C)C(=O)O1`, for which the GI50 was 0.0749 µM and the TGI amounted to 2.49 µM.

In the case of `CSc1nc(NC2OCC(OC(C)=O)C(OC(C)=O)C2OC(C)=O)c(N=CC=Nc2c(NC3OCC(OC(C)=O)C(OC(C)=O)C3OC(C)=O)nc(SC)[nH]c2=O)c(=O)[nH]1` (stereo not given), the TGI was > 100 µM.

On to `N#CC(C#N)=CNC(N)=S`, for which the TGI is > 100 µM.

`O=C1OC(O)[C@@H]2[C@H]1[C@H]1CC[C@@H]2O1` (stereo not given in full): the GI50 was 52 µM and the TGI is > 100 µM.

As for `O=C1c2cc3c(cc2-c2c1c1ccc(F)cc1c(=O)n2CCCNCCO)OCO3`, the GI50 was 0.0218 µM and the TGI was determined as 1 µM.

In turn, `COC(=O)C1=C(C)NC(C)=C(C(=O)OCCCN2CCC(c3ccccc3)(c3ccccc3)CC2)C1c1cccc([N+](=O)[O-])c1` (stereo not given) yielded a TGI of 3.75 µM.

Consider `N=Nc1c(OC(=O)Nc2cccc(Cl)c2)[nH]c2ccccc12`, for which the TGI amounted to 24.6 µM.

`CC1(C)C2CCC(=O)C1CC2` (stereo not given): the TGI was > 100 µM.

`Fc1cc2[nH]ncc2c2c3c(c(-c4cn[nH]c4)nc12)CCCC3`: the GI50 was 0.451 µM and the TGI was > 26.6 µM.

Take `CCN1CCN(c2nc(C)cc(N(CCNc3ccnc4cc(Cl)ccc34)Cc3ccc4c(c3)OCO4)n2)CC1`: the GI50 was 1.62 µM and the TGI came out at 3.55 µM.

In the case of `CCN(CC)c1ccc(-c2cc(-c3cc(OC)c(OC)c(OC)c3)nc(N3CCOCC3)c2C#N)cc1`, the GI50 is 3.3 µM and the TGI was > 100 µM.

For the molecule `C=C(Br)C(C)(Br)CCC(Br)C(C)(C)Cl` (stereo not given), the TGI is 30.4 µM.

With `O=C(CCc1nnc2sc(-c3ccc(Cl)cc3Cl)nn12)c1nc2ncccc2[nH]1`, the GI50 was 1.56 µM and the TGI was 3.68 µM.

Consider `COc1ccc(-c2nnc(COc3ccc(C(=O)/C=C/c4ccco4)cc3)o2)cc1`, for which the GI50 is 1.91 µM and the TGI was determined as 4.11 µM.

Regarding `OCc1ccc(-c2ccc(-c3ccc(CO)s3)o2)s1`, the TGI was > 100 µM.

Source of the values: PubChem BioAssay (NCI).
